Test results: patent US6908919B2, “Substituted polycyclic aryl and heteroaryl pyrazinones useful for selective inhibition of the coagulation cascade” (Pharmacia Corporation, priority 1999, dated 2005)

Target: Human factor Xa (Homo sapiens, UniProt P00742)
Assay: Xa Assay
Assay type: biochemical
Set-up: purchased Enzyme Research Laboratories, South Bend Ind
Conditions: not given

Chain of Human factor Xa (P00742 41-179 limits assumed): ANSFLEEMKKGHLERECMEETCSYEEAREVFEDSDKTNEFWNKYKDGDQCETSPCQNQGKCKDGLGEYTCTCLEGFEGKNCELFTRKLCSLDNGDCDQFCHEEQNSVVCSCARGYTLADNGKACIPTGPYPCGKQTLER
Chain of Human factor Xa (P00742 235-488 limits assumed): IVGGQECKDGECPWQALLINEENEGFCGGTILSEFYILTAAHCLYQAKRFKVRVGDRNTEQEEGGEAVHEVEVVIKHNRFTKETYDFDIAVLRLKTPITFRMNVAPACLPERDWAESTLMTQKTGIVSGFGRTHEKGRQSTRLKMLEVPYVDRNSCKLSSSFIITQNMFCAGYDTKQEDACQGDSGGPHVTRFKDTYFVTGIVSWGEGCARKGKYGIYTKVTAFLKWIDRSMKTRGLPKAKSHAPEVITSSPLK

SMILES	% Inhibition Factor Xa (100 µM) [%]
O=C(Cn1c(-c2ccc(-c3ccccc3)cc2)c(Cl)nc(NCCc2cccc(Cl)c2)c1=O)NCCc1cccnc1 [Example E-0116]	4
O=C(Cn1c(-c2ccc(-c3ccccc3)cc2)c(Cl)nc(NCCc2ccc(Cl)cc2)c1=O)NCCc1cccnc1 [Example E-0119]	5

Same assay, conditions: at 30 µM

SMILES	% Inhibition Factor Xa (30 µM) [%]
CC(C)CNc1nc(Cl)c(-c2cccc(N)c2)n(CC(=O)NCc2ccc(C(=N)N)cc2F)c1=O [1543-38]	14
CCCNc1nc(Cl)c(-c2ccccc2)n(CC(=O)NCc2ccc(C(=N)N)cc2)c1=O [Example 1517-33]	0
N=C(N)c1ccc(CNC(=O)Cn2c(-c3c(Cl)cccc3Cl)c(Cl)nc(NC3CCC3)c2=O)cc1 [Example 1517-12]	0
C[Si](C)(C)CNc1nc(Cl)c(-c2ccccc2)n(CC(=O)NCc2ccc(C(=N)N)cc2)c1=O [Example 1517-36]	0
CNc1nc(Cl)c(-c2cccc(N)c2)n(CC(=O)NCc2ccc(C(=N)N)cc2)c1=O [1543-05]	14
CC(C)N(C)c1nc(Cl)c(-c2ccccc2)n(CC(=O)NCc2ccc(C(=N)N)cc2)c1=O [Example 1517-31]	0
N=C(N)c1ccc(CNC(=O)Cn2c(-c3cccc(N)c3)c(Cl)nc(NC3CC3)c2=O)c(F)c1 [1543-33]	14
CC(C)Nc1nc(Cl)c(-c2cccc(N)c2)n(CC(=O)NCc2ccc(C(=N)N)cc2F)c1=O [1543-40]	10
N=C(N)c1ccc(CNC(=O)Cn2c(-c3cccc(N)c3)c(Cl)nc(NCCN3CCCCC3)c2=O)cc1 [1543-15]	41
N=C(N)c1ccc(CNC(=O)Cn2c(-c3c(Cl)cccc3Cl)c(Cl)nc(NCCc3ccccc3)c2=O)cc1 [Example 1517-18]	0

Same assay, conditions: at 30 µM inhibitor

SMILES	% Inhibition Factor Xa (30 µM)
N=C(N)c1ccc(CNC(=O)Cn2c(-c3cccc(N)c3)c(Cl)nc(NC3CCC3)c2=O)cc1 [Example 90]	16% @ 30
N=C(N)c1ccc(CNC(=O)Cn2c(-c3ccccc3)c(Cl)nc(NCc3cc(F)ccc3F)c2=O)cc1 [1512-36]	9%
CC(C)Nc1nc(Cl)c(-c2cccc(N)c2)n(CC(=O)NCCc2ccc(C(=N)N)cc2)c1=O [Example 62]	10%
N=C(N)c1ccc(CNC(=O)Cn2c(-c3ccc4c(c3)OCO4)c(Cl)nc(NCCc3cccnc3)c2=O)cc1 [1471-48]	17%
CN1CCCC1CCNc1nc(Cl)c(-c2ccccc2)n(CC(=O)NCc2ccc(C(=N)N)cc2)c1=O (stereo not drawn) [1512-46]	10%
COc1cccc(CNc2nc(Cl)c(-c3ccccc3)n(CC(=O)NCc3ccc(C(=N)N)cc3)c2=O)c1OC [1512-02]	3%
N=C(N)c1ccc(CNC(=O)Cn2c(-c3ccccc3)c(Cl)nc(NCc3ccncc3)c2=O)cc1 [1471-11]	9%
CC(C)Nc1nc(Cl)c(-c2ccc(Cl)nc2)n(CC(=O)NCc2ccc(C(=N)N)cc2F)c1=O [Example 74]	13%
N=C(N)c1ccc(CNC(=O)Cn2c(-c3ccccc3)c(Cl)nc(NCCc3ccccn3)c2=O)cc1 [1512-47]	13%
N=C(N)c1ccc(CNC(=O)Cn2c(-c3ccccc3)c(Cl)nc(NCCc3ccncc3)c2=O)cc1 [Example 19]	22% @ 30
Cc1c(Cl)nc(NCCc2cccnc2)c(=O)n1CC(=O)NCc1ccc(C(=N)N)cc1 [1471-8]	27%
CSCC(C(=O)NCc1ccc(C(=N)N)cc1)n1c(-c2ccccc2)c(Cl)nc(NC2CCC2)c1=O (stereo not drawn) [Example 1517-10]	0%
N=C(N)c1ccc(CNC(=O)Cn2c(-c3ccc(Cl)cc3)c(Cl)nc(NCCc3cccc(Cl)c3)c2=O)cc1 [1471-22]	28%
N=C(N)c1ccc(CNC(=O)Cn2c(-c3ccccc3)c(Cl)nc(NCc3cc(C(F)(F)F)ccc3F)c2=O)cc1 [1512-27]	3%

Same assay, conditions: inhibitor at 100 µM

SMILES	% Inhibition Factor Xa (100 µM) [%]
COc1ccc(-c2c(Cl)nc(NCCc3ccccc3)c(=O)n2CC(=O)NCCc2ccncc2)cc1 [Example E-0100]	6
